Measured values: patent US20130281313A1, “PROGNOSTIC AND/OR PREDICTIVE BIOMARKERS AND BIOLOGICAL APPLICATIONS THEREOF” (INSTITUT GUSTAVE ROUSSY, priority 2010, published 2013)

Legend:
Type in all cases: cell-based, human
A549 cells [1] = experiment: Cytofluorometric assessment of cell death (DiOC6(3)/PI co-staining); settings: A549 cells; for apoptosis-inducing effect of CDDP (DiOC6(3)/PI co-staining or DNA loss, sub-G1 peak): CDDP irrespective of the presence of PN
Description: Unless otherwise specified, chemicals were purchased from Sigma-Aldrich (St. Louis, USA), culture media and supplements for cell culture from Gibco-Invitrogen (Carlsbad, USA) and plasticware from Corning (Corning, USA). […] Orlistat (Xenical®) was obtained from Roche (Basel, Switzerland). […] Undissolved material was removed by two sequential rounds of centrifugation at 12,000 G (5 min, room temperature, RT), supernatants were collected and stored at −80° C. under protection from light until use. In low-throughput experiments, all cell lines were treated with 2.5 mM pyridoxine (PN), exception made for A549 cells that received 5 mM PN.
To avoid depleting the siRNA library of selected sequences, siRNAs for validation experiments were purchased as custom molecules from Sigma-Aldrich. For low-throughput experiments, (see below for the transfection protocols employed in the siRNA screen), siRNA were transfected in A549 cells with Oligofectamine™ reagent (Invitrogen), following the manufacturer's instructions. Transfection with a non-targeting siRNA (siUNR) was employed as a negative control condition. Forty-eight hours after transfection, siRNA-mediated target downregulation was assessed by immunoblotting (see below).
All cytofluorometric determinations were carried out a FACSCalibur or a FACScan cytofluorometer (BD Biosciences, San Jose, USA) equipped with a 70 μm nozzle.
(§1) First line statistical analysis of cytofluorometric results was performed by using the CellQuest™ software (BD Biosciences), by gating on the events characterized by normal forward scatter and side scatter parameters. Apoptosis- and cell cycle-related data were further analyzed with Microsoft Excel (Microsoft Co., Redmond, USA) and statistical significance was assessed by means of two-tailed Student's t test (p<0.05).

A549 cells [2] = experiment: Cell cycle distribution (PI staining, cytofluorometry); settings: 10 μM CDDP alone or with PN and/or NAC
Description: To measure apoptosis-related parameters, living cells were labeled for 30 min at +37° C. with 40 nM 3,3′dihexyloxalocarbocyanine iodide (DiOC6(3), from Molecular Probes-Invitrogen, Eugene, USA), which quantifies the mitochondrial transmembrane potential (Δψm), plus 1 μg/mL propidium iodide (PI), which only accumulates in cells with ruptured plasma membrane {Galluzzi, 2009; Galluzzi, 2008; Galluzzi, 2007}. To assess cell cycle distribution, cells were collected, fixed by gentle vortexing in ice-cold 80% (v/v) ethanol (Carlo Erba Reagents, Milano, Italy) and stained with 50 μg/mL PI in 0.1% (w/v) D-glucose in PBS supplemented with 1 μg/mL (w/v) RNAse A {Mondragon, 2009; Mouhamad, 2007}. All cytofluorometric determinations were carried out a FACSCalibur or a FACScan cytofluorometer (BD Biosciences, San Jose, USA) equipped with a 70 μm nozzle.
as §1

A549 cells [3] = experiment: Intracellular levels of CDDP in cell lysates; settings: 24 h, 25 μM CDDP alone or with PN and/or GSH, normalized to protein content
Description: (E,F) Intracellular levels of CDDP (normalized to protein content) in lysates from untransfected A549 cells (D) or A549 cells transfected with a PDXK-targeting siRNA (E), treated for 24 h with 25 μM CDDP alone or in combination with PN and/or GSH. Mean±SEM (n=6). *=p<0.05 (Studen's t test), as compared to untransfected (D) or siUNR transfected (E) cells treated with CDDP only. n.s.=non significant (Student's t test), as compared to cells treated with the same concentration of GSH (D) or to siPDXK-transfected cells treated with CDDP only (E).

A549 cells [4] = experiment: Targeted metabolomic studies (ATP, ADP, AMP, GSH; RRLC-MS); settings: A549 cells incubated for 24 h with 5 mM GSH
Description: A549 cells were left untreated or treated with 25 μM CDDP alone or in combination with 5 mM PN, for 24 h. Thereafter, both attached (living) and detached (dying/dead) cells were harvested, washed once in cold PBS and pelleted (800 G for 5 min). Pellets were resuspended in 200 μL deionized water, briefly vortexed and sonicated. 800 μl ice-cold methanol was added, and samples were kept in ice for 15 min, vortexed and centrifuged at 13,000 G for 10 min at 4° C. Supernatants were dried in a SpeedVac drier (Thermo Scientific-Pierce) and stored at −80° C. until analysis. Pellets were resuspended in 150 μL 98:2 water/acetonitrile immediately before analytical determinations (see below).
ATP, ADP, AMP and GSH were quantified on a Rapid Resolution Liquid Chromatography (RRLC) 1200SL system coupled to a 6410 Triple Quadripole (QQQ) mass spectrometer (both from Agilent Technologies). For nucleotides, RRLC was performed on 150×2.1 mm, 3.5 μM Eclipse Plus columns (Agilent Technologies) with water containing 4 mM dimethylhexylamine (DMHA) plus 0.01% (v/v) acetic acid in channel A and acetonitrile in channel B, in gradient mode at a flow rate of 0.2 mL/min: t=0 min 2% B; t=9 min 32% B; t=10 min 95% B; T=12 min 95% B, re-equilibration time=6 min. Mass spectrometry was performed in positive electrospray ionization mode at +4 kV on the QQQ system operating in MRM mode. MRM transitions were optimized with direct infusions of ATP, ADP, and AMP standards with direct infusion, and four transitions were recorded for each compounds. Parent ions were adduct ions of DMHA and also proton adducts:
For GSH, RRLC was performed on a 150×2.1 mm, 3.5 μM Stable Bond AQ column (Agilent Technologies) with water containing 0.2% (v/v) acetic acid in channel A and methanol in channel B, in gradient mode at a flow rate of 0.3 mL/min: t=0 min 2% B; t=8 min 95% B; t=9 min 95% B; re-equilibration time=6 min. Mass spectrometry was performed as above. MRM transitions were optimized with direct infusion of GSH standards.
Data collection and analysis were performed with the MassHunter software (Agilent Technologies).

A549 cells [5] = experiment: Transcriptome studies (mRNA microarrays)
Description: NSCLC A549 cells were treated with 100 μM CDDP, 75 μM C2-CER or 100 μM CdCl2 for 12 h, or with 50 μM CDDP, C2-CER or CdCl2 for 24 h. Thereafter, cells were collected and lysed for RNA extraction of following established procedures {de La Motte Rouge, 2007}. mRNA expression changes were quantified on G4112A 44 k Whole Human Genome Oligo Microarrays (Agilent Technologies, Santa Clara, USA), as previously reported {Castedo, 2006}. mRNA microarrays underwent standardized post-hybridization processing, image acquisition and analysis (see below) {Castedo, 2006}.
Data from microarray experiments were analyzed with the Rosetta Resolver® System (Rosetta Biosoftware, Seattle, USA). The threshold for statistical significance of probe signals (Intensity) was set at p=10^−5. […] For each mRNA, fold change (FC) was then defined as Intensitysample/Intensitycontrol when Intensitysample>Intensitycontrol, or as—(Intensitycontrol/Intensitysample) when Intensitysample<Intensitycontrol. Ratios were calculated as Intensitysample/Intensitycontrol.

[6] = followed by CDDP, DiOC6(3)/PI co-staining
[7] = 12 h, 100 μM CDDP, 75 μM C2-CER or 100 μM CdCl2, vs untreated cells
[8] = 24 h, 50 μM CDDP, C2-CER or CdCl2, vs untreated cells

## CCCCCCCCCCCCCCC(Br)C(=O)O (stereo not shown) [2-bromopalmitate]
A549 cells [1]; [6]
  epistatic interaction on CDDP-induced cell death, ZDHHC9 inhibition (2-bromopalmitate) combined with IL6R blockade (extracellular antibody): no significant epistatic interaction

## CC(=O)N[C@@H](CS)C(=O)O [NAC, N-acetylcysteine]
A549 cells [2]
  cell cycle arrest induced by CDDP: failed to reverse the cell cycle arrest induced by CDDP
A549 cells [1]
  apoptosis-inducing effect of CDDP (DiOC6(3)/PI co-staining or DNA loss, sub-G1 peak): blocked the apoptosis-inducing effect of CDDP

## N[C@@H](CCC(=O)N[C@@H](CS)C(=O)NCC(=O)O)C(=O)O [GSH, glutathione]
A549 cells [1]; 25 or 75 μM CDDP plus PN
  protection against the cytotoxic effect of CDDP plus PN: protected cells against the cytotoxic effect of CDDP plus PN
A549 cells [1]
  apoptosis-inducing effect of CDDP (DiOC6(3)/PI co-staining or DNA loss, sub-G1 peak): blocked the apoptosis-inducing effect of CDDP
A549 cells [3]
  intracellular accumulation of CDDP: strongly inhibited the accumulation of CDDP within the cells
A549 cells [4]
  intracellular GSH levels upon extracellular GSH: had no significant impact on intracellular GSH levels

## Cc1ccc(-c2cn3c4c(sc3n2)CCCC4)cc1 [cyclic pifithrin-α]
A549 cells [1]; [6]
  protection against CDDP, COX inhibition with sodium azide combined with TP53 inhibition with cyclic pifithrin-α: synergistic protection against CDDP

## CCCCCCCCCCCCC/C=C/[C@@H](O)[C@H](CO)NC(C)=O [C2-CER, C2-ceramide]
A549 cells [5]; [7]
  Fold change, ADAR (NM_001111) transcript: n.s.
  Fold change, ALDH7AT (NM_001182) transcript: −1.85
  Fold change, CD151 (NM_004357) transcript: n.s.
  Fold change, CLIC1 (NM_001288) transcript: n.s.
  Fold change, COMMO9 (NM_014186) transcript: n.s.
  Fold change, COX5B (NM_001802) transcript: −1.62
  Fold change, COX7C (NM_001867) transcript: −1.33
  Fold change, DHRSX (NM_145177) transcript: n.s.
  Fold change, EBP (NM_006579) transcript: −2.80
  Fold change, EEF2 (NM_001901) transcript: 2.31
  Fold change, FDXK (NM_003681) transcript: −1.89
  Fold change, FN3KRP (NM_024619) transcript: −1.35
  Fold change, HDLBP (NM_005336) transcript: 1.69
  Fold change, HGD (NM_000187) transcript: −2.15
  Fold change, IL6R (NM_000565) transcript: 2.94
  Fold change, KHSRP (NM_003685) transcript: −2.29
  Fold change, LOC389727 (NM_372092) transcript: n.s.
  Fold change, MAT2A (NM_005911) transcript: −3.47
  Fold change, MOL1 (NM_021960) transcript: −1.35
  Fold change, MPP6 (NM_016447) transcript: n.s.
  Fold change, OSTCL (NM_145303) transcript: 2.25
  Fold change, P5MC5 (NM_002805) transcript: −2.20
  Fold change, PLK1S1 (NM_018474) transcript: 1.99
  Fold change, PPM1J (NM_005167) transcript: n.s.
  Fold change, RNF26 (NM_032015) transcript: n.s.
  Fold change, RRAD (NM_004185) transcript: n.s.
  Fold change, SEMA3G (NM_000379) transcript: n.s.
  Fold change, SLC22A16AS (NM_007105) transcript: −1.40
  Fold change, SOCS6 (NM_004232) transcript: n.s.
  Fold change, TMED1 (NM_006858) transcript: n.s.
  Fold change, TRIP4 (NM_016213) transcript: 1.83
  Fold change, UBE2L3 (NM_003347) transcript: −1.48
  Fold change, UBE21 (NM_014176) transcript: −2.92
  Fold change, W282 (NM_018029) transcript: n.s.
A549 cells [5]; [8]
  Fold change, ADAR (NM_001111) transcript: −1.45
  Fold change, ALDH7AT (NM_001182) transcript: −1.98
  Fold change, CD151 (NM_004357) transcript: n.s.
  Fold change, CLIC1 (NM_001288) transcript: n.s.
  Fold change, COMMO9 (NM_014186) transcript: n.s.
  Fold change, COX5B (NM_001802) transcript: −1.61
  Fold change, COX7C (NM_001867) transcript: n.s.
  Fold change, DHRSX (NM_145177) transcript: n.s.
  Fold change, EBP (NM_006579) transcript: −3.16
  Fold change, EEF2 (NM_001901) transcript: 2.62
  Fold change, FDXK (NM_003681) transcript: −1.91
  Fold change, FN3KRP (NM_024619) transcript: −1.67
  Fold change, HDLBP (NM_005336) transcript: 1.99
  Fold change, HGD (NM_000187) transcript: −4.23
  Fold change, IL6R (NM_000565) transcript: 3.52
  Fold change, KHSRP (NM_003685) transcript: −2.23
  Fold change, LOC389727 (NM_372092) transcript: n.s.
  Fold change, MAT2A (NM_005911) transcript: −2.96
  Fold change, MOL1 (NM_021960) transcript: −1.58
  Fold change, MPP6 (NM_016447) transcript: n.s.
  Fold change, OSTCL (NM_145303) transcript: 3.08
  Fold change, P5MC5 (NM_002805) transcript: −2.27
  Fold change, PLK1S1 (NM_018474) transcript: 1.93
  Fold change, PPM1J (NM_005167) transcript: n.s.
  Fold change, RNF26 (NM_032015) transcript: −2.11
  Fold change, RRAD (NM_004185) transcript: 1.55
  Fold change, SEMA3G (NM_000379) transcript: n.s.
  Fold change, SLC22A16AS (NM_007105) transcript: −1.60
  Fold change, SOCS6 (NM_004232) transcript: n.s.
  Fold change, TMED1 (NM_006858) transcript: n.s.
  Fold change, TRIP4 (NM_016213) transcript: 1.65
  Fold change, UBE2L3 (NM_003347) transcript: −1.47
  Fold change, UBE21 (NM_014176) transcript: −4.38
  Fold change, W282 (NM_018029) transcript: n.s.
